Source: US20250195540A1, “Use of dehydroepiandrosterone (DHEA) in preparation of drug for preventing and treating ophthalmic myopia, dosage forms of DHEA, and preparation methods of dosage forms” (Zhongshan Ophthalmic Center of Sun Yat-sen University, priority 2022, published 2025)

Tested on: form deprivation myopia (FDM) model
Assay: Efficacy research in form deprivation myopia (FDM) model
Format: in vivo, colored guinea pigs
Conditions: applied locally to eyes
From the text: (1) A total of 40 healthy three-week-old colored guinea pigs were randomly selected and randomly divided into 8 groups with 5 guinea pigs in each group. The 8 guinea pig groups includes a first group: a normal control group, a second group: a myopia model-alone group, a third group: a myopia model+0.01% DHEA-based eye drop group, a fourth group: a myopia model+0.1% DHEA-based eye drop group, a fifth group: myopia model+1% DHEA-based eye drop group, a sixth group: a myopia model+2% DHEA-based eye drop group, a seventh group: a myopia model+DHEA-based eye ointment group, and an eighth group: a myopia model+DHEA-based gel group. There were no statistically-significant differences in the baseline diopter and AL of the right eye among the groups.
(2) Establishment of a form deprivation myopia (FDM) model: the right eye was covered and the left eye was normally opened. […]
A) Diopter measurement: the optometry was conducted with a streak retinoscope and lenses of different diopters, and an average of diopters in horizontal and vertical meridians was taken. The optometry was conducted 3 times, and an average was taken and recorded as a result.
B) AL measurement: ALs of both eyes were measured by an A-mode ultrasound instrument. Results of 6 measurements under waveform standards were selected, and an average was taken and recorded as a result, which was accurate to 0.01 mm.

C[C@]12CC[C@H](O)CC1=CC[C@@H]1[C@@H]2CC[C@]2(C)C(=O)CC[C@@H]12 [DHEA, 3-β-hydroxyandrost-5-en-17-one]
Growth of axial length (AL) in animal models: reduce the growth of axial length (AL)
